This is an account of results in patent publication US3985878A, “Anti-inflammatory and antirheumatic compounds and preparation” (priority 1974, dated 1976).

The structures appear in SMILES notation. Values joined by “and” are separate entries in the source; they are usually repeats but may differ in a detail not shown here. Equal values may be shown once. Read-outs that look alike come from different tables or passages of the source.

A short description of data set [1]: Pellets-induced granuloma test (cotton pellets). It is filed as in vivo, rat. The conditions noted are these: rat. How it is done: 1b. Pellets-induced granuloma test:
Another important test for the evaluation of an anti-inflammatory is that of cotton pellets. This consists of planting a sterile cotton pellet under the rat's back skin.
This pellet is left in situ for a week while the animals are treated daily with various doses of the drug being examined. Evaluation is effected by weighing the pellets taken at the given time and dried, comparing the weight of those of the treated animals with the checks.

The subject of data set [2] is fibroblast culture. Briefly: Production of mucopolysaccharides from fibroblast culture in vitro. It is filed as cell-based. On the procedure:
a. Tests in vitro: These tests consist of the cultivation in vitro, i.e., outside the organism, of tissue of the same embriological origin in relation to the osteoarticular. Upon the growth of this tissue there is then measured the activities of the various drugs. The units of measurement of these activities is the production of glucosaminoglicanes (mucopolysaccharides measured by the turbidimetric method).
The compounds which form the subject of this invention were evaluated according to this test and compared with known anti-inflammatories.

Data set [3] can be described thus: Osteolathyrism in the rabbit (aminoacetonitrile). It counts as in vivo. On the procedure:
B. Tests in vivo: Osteolathyrism in the rabbit.
Osteolathrism consists of inducing into young rabbits a dystrophy of the bone joint system, administering every day aminoacetonitrile by i.p. means, in the quantity of 100 mg/kg of body weight. With this treatment, in about 30 days, the following changes are shown in the rabbit:
Loss of weight (related to the checks physiologically treated), ptosis of the auricular pavilion, loss of fur, deformation of the front and rear limbs, deterioration of the general condition.
All this takes place because the aminoacetonitrile is a collagen tissue poison which changes the biochemical composition of the joint cartilages and the bones.
An evaluation of the therapeutic activity can be made either by biochemical evaluation, i.e. by measuring the quantity of aminosugars in these tissues, or by considering only the general symptoms, which are proportional to the diminution of the aminosugars.
In Table 5 this latter evaluation is reported, in which every symptom was evaluated by allotting it a number from 0 to 4, 4 indicating the maximum amount of damage and 0 indicating no damage.
On Table 5 there are given the results of treatment evaluated on the 25th day, comparing the groups treated only with a physiological solution, only with aminoacetonitrile, with aminoacetonitrile and CR 604, with aminoacetonitrile and Indometacin in the prescribed doses.
Each group consisted of 8 animals.

A short description of data set [4]: Irritant and ulceroid (gastrolesive) activity on the gastric mucosa. Conditions: rat, in vivo. On the procedure: 4. Irritant and ulceroid activity on the gastric mucosa
The experimental evaluation of this activity was made on rats, by the method here reported:
The compound is administered orally to rats which have fasted for 12 hours, the animals being killed 4 hours after the administration.
Regarded as positive, i.e. with stomach damage, are those animals which have at least one haemorrhage point on the stomach wall.
By ED50 there is meant that dose of the drug which can […] in 50% of the animals treated, the formation of these haemorrhages.
In Table 6 there are compared CR 604 and Indometacin, since the latter is, amongst them all, the nearest to the anti-inflammatory activity values of CR 604.

A short description of data set [5]: Tolerance in animals, subacute and chronic. It is filed as in vivo. Conditions: up to 6 months administration to animals, quantities greater than those recommended for human beings. The text has this: For these substances, and particularly for CR 604, tolerance tests were made, subacute and chronic, by up to 6 months administration to the animals.
Data set [6] concerns uropepsinogene. It counts as in vivo, human. Conditions: in vivo. On the procedure:
(§1) Thus for example comparing CR 604 administered in capsules of 75 mg (6 per day), with Indometacin in capsules of 25 mg (6 per day), i.e. in approximately equimolecular doses on a group of 60 subjects treated (30 with CR 604 and 30 with Indometacin, one notes that (see Table 7):
Gastric secretion of pepsin is increased by agents which irritate and damage the gastric mucosa.

The subject of data set [7] is urinary calcium. It counts as in vivo, human. Conditions: in vivo. How it is done:
as §1
c. […] Excretion of calcium is related to the destruction of the fibrils of the proteic bone matrix which thus also loses the calcium deposited upon it.
The administration of known anti-inflammatories brings about the lysis of these fibrils with loss of calcium.

Data set [8] is described as follows: Anti-inflammatory activity, paw test (Domenjoz test). It counts as in vivo, rat. Conditions: rat, oral 1 hour before carragheen 1%; paws weighed after two hours; read-out: ED50 per os, acute anti-inflammatory activity (Domenjoz test). How it is done:
1a. Anti-inflammatory activity: this activity was measured by the paw test according to Doemnjoz, characterised in its carrying out by the following method:
To young rats of medium weight of 200 g there is administered by hypodermic injection into the right paw an aqueous suspension of carragheen at 1%, 1 hour after the oral administration of the drugs under investigation.
After two hours from the administration of the carragheen, the pawas are disjointed, weighed, and comparison is made between the injected paw, meanwhile swollen, and the paw not interfered with.
This evaluation is expressed both in mg/kg of animal weight and in micromoles/Kg of weight of the animal.

Data set [9] in a line: Analgesic activity, phenylquinone test. It is filed as in vivo, rat. Conditions: rat, oral; read-out: ED50 per os, analgesic activity (phenylquinone test). The text has this: 2. Analgesic activity: The analgesic activity of an anti-inflammatory can be examined traditionally by the phenylquinone method based on the fact that intra-peritoneal administration to a rat of an irritant substance such as phenylquinone induces vocal reactions ("squirring") in the animal.
From the number of these reactions one judges the pain sensitivity.

Data set [10] is classed as in vivo, human. The conditions noted are these: in vivo. On the procedure:
Thus for example comparing CR 604 administered in capsules of 75 mg (6 per day), with Indometacin in capsules of 25 mg (6 per day), i.e. in approximately equimolecular doses on a group of 60 subjects treated (30 with CR 604 and 30 with Indometacin, one notes that (see Table 7): […]

Data set [11] in a line: Solubility. It is filed as physicochemical.
Where [12] appears, read: score 0 (no damage) to 4 (maximum damage), 15 mg/kg/day i.p. + aminoacetonitrile 100 mg/kg/day, 25 days.

For `CCCN(CCC)C(=O)C(CCC(=O)OCCCN1CCN(CCOC(=O)Cc2c(C)n(C(=O)c3ccc(Cl)cc3)c3ccc(OC)cc23)CC1)NC(=O)c1ccccc1` (racemic) [CR 604, N'-2-[1-(p-chlorobenzoyl)-5-methoxy-2-methyl-3-indoleacetoxy]ethyl-N-3-(N-benzoyl-N', N'-di-n-propyl-DL-isoglutaminoyl)-oxypropyl-piperazine], in data set [1], the “anti-inflammatory activity (granuloma test), in words” value was “high anti-inflammatory activity”. In addition, the “effect on growth and production of mucopolysaccharides, in words” value in [2] (in vitro culture of collagen tissue) was “does not harm”. In [3] (rabbit), the “effect on aminoacetonitrile symptoms, in words” value is on record as “greatly modifies these toxic symptoms”. The “gastrolesive dose, in words” value in [4] (po) is recorded as “so high as to be of no practical importance, being roughly equal to a fatal dose”. Further, the “tolerance, subacute and chronic” value in data set [5] was “well tolerated without any special anatomical or functional lesion”. The “uropepsinogene in urine, in words” value in data set [6] is “diminishes in the urine”. In addition, in data set [7], the “destruction (lysis) of fibrils of proteic bone matrix, in words” value is recorded as “does not induce this destruction or reduces it” and the “excretion of urinary calcium, in words” value is “reduction in the excretion of urinary calcium”.

Usually ED50 stands for the dose at which the effect has come halfway, by size or by number of responders. Regarding `CCCN(CCC)C(=O)C(CCC(=O)OCCCN1CCN(CCOC(=O)Cc2c(C)n(C(=O)c3ccc(Cl)cc3)c3ccc(OC)cc23)CC1)NC(=O)c1ccccc1` (racemic) [CR 604 (di-maleate), N'-2-[1-(p-chlorobenzoyl)-5-methoxy-2-methyl-3-indoleacetoxy]ethyl-N-3-(N-benzoyl-N', N'-di-n-propyl-DL-isoglutaminoyl)-oxypropyl-piperazine], the median effective dose (ED50) in data set [8] is 11.5 µmol/kg and 12.3 mg/kg. Also, the ED50 in data set [1] (oral, daily for a week, read-out: ED50 per os, acute anti-inflammatory activity (granuloma test)) is 25.6 µmol/kg and 27.6 mg/kg. Also, in [9], the ED50 is 5.3 µmol/kg and 5.72 mg/kg. For the same compound, the activity at 6 µg/mL in [2] (Fibroblast, 240 h, 6 μg/ml of culture liquid, read-out: Mucopolysaccharide products at the tenth day of incubation) amounted to 108%. In addition, in data set [3] (setting [12]), the “Deformed gait of back legs” value stood at 0.6, the “Deformed gait of front legs” value is given as 0, the “General Condition of Animal” value is listed as 0.2 and the Loss of fur turned out to be 0. In data set [3] (setting [12]), the Loss of weight is reported as 0 and the “Ptosis of auricular pavilion” value was found to be 0.2. Further, the TD50 at 4 h in data set [4] (oral, fasted 12 hours, killed 4 hours after administration, read-out: ED50 gastrolesive) was 330 µmol/kg. This compound returned a TD50 at 4 h in [4] (po) of 355 mg/kg. For the same compound, in data set [10], the Epigastric pain is 0 % of patients in pain. Besides, the Uropepsinogene in data set [6] is reported as 216.3 equivalent mg of tyrosine per. The Urinary calcium in data set [7] is 132 mg/1000 cc of urine. Further, the solubility in acetone result in [11] (acetone) is recorded as “slightly soluble”. The solubility in ethanol result in data set [11] (ethanol) was “slightly soluble”. The solubility in methanol entry in data set [11] (methanol) is listed as “more soluble”. Moreover, the “solubility in water, in words” value in [11] (water) is “Insoluble”.
